In US5054434A, “Suppression of ammonia odors from animal wastes” (W. R. Grace & Co.-Conn., priority 1989, dated 1991):
Structures can show the parent of a compound that is named as a salt.

Key:
[1] = biological target: jack bean urease (Canavalia ensiformis, UniProt P07374); assay: Ammonia accumulation from synthetic urine with urease on treated bedding; type: biochemical; conditions: for ammonia smell in capped bottle: 12 mg acid, 15 g synthetic urine with 200 units urease, 37.5° C., after 4 hr; for control of accumulation of ammonia: procedure of Example 1
Chain of jack bean urease (P07374 whole entry, looked up): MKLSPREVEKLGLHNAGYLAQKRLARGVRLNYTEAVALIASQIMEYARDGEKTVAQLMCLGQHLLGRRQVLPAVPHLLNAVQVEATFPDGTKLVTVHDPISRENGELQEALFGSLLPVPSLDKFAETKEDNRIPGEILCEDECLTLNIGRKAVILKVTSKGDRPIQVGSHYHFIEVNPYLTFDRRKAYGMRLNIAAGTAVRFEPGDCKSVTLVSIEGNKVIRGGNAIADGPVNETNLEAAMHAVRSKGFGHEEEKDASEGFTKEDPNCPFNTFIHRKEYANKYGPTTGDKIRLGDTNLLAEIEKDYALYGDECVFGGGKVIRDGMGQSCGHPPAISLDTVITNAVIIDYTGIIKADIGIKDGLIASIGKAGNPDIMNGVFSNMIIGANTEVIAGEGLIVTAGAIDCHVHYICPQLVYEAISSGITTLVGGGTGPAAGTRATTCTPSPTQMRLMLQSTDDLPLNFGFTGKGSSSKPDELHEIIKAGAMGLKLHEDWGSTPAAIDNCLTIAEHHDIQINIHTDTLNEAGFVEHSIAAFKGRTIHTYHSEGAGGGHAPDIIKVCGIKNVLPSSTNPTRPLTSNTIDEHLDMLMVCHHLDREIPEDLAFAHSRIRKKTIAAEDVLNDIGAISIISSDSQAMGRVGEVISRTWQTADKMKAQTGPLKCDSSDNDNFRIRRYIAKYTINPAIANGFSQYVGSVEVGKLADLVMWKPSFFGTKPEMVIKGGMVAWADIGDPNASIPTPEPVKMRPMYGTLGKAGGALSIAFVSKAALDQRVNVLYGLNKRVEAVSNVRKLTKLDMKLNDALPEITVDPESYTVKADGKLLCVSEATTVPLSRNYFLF
Procedure: To test the effectiveness of the acid the following procedure has been used. A synthetic urine is made by combining 2.3 wt % urea and 1.1 wt % sodium chloride. To mimic the presence of bacteria, 200 units of jack bean urease is added to the synthetic urine. Jack bean urease is a readily available form of urease which is suitable for use in this context because useases from most natural sources appear to act similarly. See "Jack Bean Urease (EC 3.5.1.5).8. […] Chem. Soc. 1986, 108, 7124-7125.
This urine is then poured over a sample of bedding or other absorbent material to which the acid has been applied. The treated sample is covered so that any gases produced may accumulate. The presence of ammonia is tested for by using Draeger tubes.
Two 8 oz. polyethylene bottles were charged with 15 g of rice hulls and 15 g of sawdust, respectively. […] The bottles were capped, and incubated in a shaker bath at 37.5° C. […] By contrast, identical bottles not containing citric acid smelled strongly of ammonia.

[2] = tested on: Bacillus pasteurii; assay: Ammonia accumulation from synthetic urine on rice hulls with live urease-producing bacteria; conditions: 24 mg acid, 6 g rice hulls, 24 g synthetic urine, 37.5° C., after one day
[3] = smell of the acid itself; cited from earlier work
[4] = tested on: rabbit; conditions: cited from earlier work
[5] = cited from earlier work
[6] = tested on: urease; conditions: literature statement (Mobley and Hausinger 1989); cited from earlier work

Compound: O=C(O)CC(O)(CC(=O)O)C(=O)O [Citric, citric acid]
- ammonia smell in capped bottle ([1]; 15 g rice hulls): no ammonia smell could be detected
- ammonia smell in capped bottle ([1]; 15 g sawdust): no ammonia smell could be detected
- ammonia in bottle measured using a Draeger tube [2]: less than 5 ppm
- Smell [3]: None

Compound: O=C(O)/C=C/C(=O)O [Fumaric, fumaric acid]
- control of accumulation of ammonia ([1]; 6 mg): sufficient to prevent the accumulation of noticeable amounts of ammonia

Compound: O=C(O)CC(O)C(=O)O (stereo not drawn) [Malic, malic acid]
- control of accumulation of ammonia ([1]; 12 mg): sufficient to prevent the accumulation of noticeable amounts of ammonia
- Oral LD50 [4]: 5,000 mg/kg
- Smell [3]: None

Compound: O=C(O)CC(=O)O [Malonic, malonic]
- Smell [3]: None

Compound: C/C=C/C=C/C(=O)O [Sorbic, sorbic]
- Smell [3]: None
- First pKa [5]: 4.8

Compound: O=C(O)CCC(=O)O [Succinic, succinic]
- Smell [3]: None

Compound: CC(=O)O [acetic acid, reference compound]
- Smell [3]: strong and unpleasant smell

Compound: OB(O)O [boric acid, reference compound]
- control of accumulation of ammonia ([1]; 36 mg): not control the accumulation of ammonia
- First pKa [5]: 9.1

Compound: O=C(O)CC(O)(CC(=O)O)C(=O)O [sodium citrate, reference compound]
- control of accumulation of ammonia ([1]; 24 mg): not to control the accumulation of ammonia

Compound: phosphoric acid
- control of accumulation of ammonia ([1]; 6 mg): sufficient to prevent the accumulation of noticeable amounts of ammonia
- inhibition of urease [6]: inhibitor of urease
